Test results taken from patent EP4556465A1, “NOVEL BICYCLIC PD-L1 INHIBITORS, PREPARATION METHODS THEREFOR AND MEDICINAL USES THEREOF” (priority 2022, dated 2024).

Columns and labels:
SD rats [1] = experiment: Safety test after repeated administration for 14 days; type: in vivo; conditions: oral gavage 300 mg/kg once a day for 14 days
Procedure: • Animal species and number: SD rats; 6 rats in each group (half male and half female); Mode of administration: oral gavage; […]; • Administration frequency: administration once a day for 14 days.
(§1) Side-cage observation of acute toxicity reactions was performed for 4 h after administration, and detailed clinical observations were performed on animals with apparent abnormal manifestations. General clinical observations included observation twice a day during the test (observation once in the morning and observation once in the afternoon). Mortality, morbidity, respiration, secretion, feces, and diet, water drinking, etc. were observed, and changes in body weight of rats during administration were recorded. Detailed clinical observations include, but are not limited to, behavioral activities, skin, hair, eyes, ears, noses, abdomens, external genitalia, anuses, limbs, feet, and breathing. The animals in each group were euthanized at the end of administration, and all animals were dissected and gross observed.

SD rats [2] = experiment: Acute toxicity test, single oral gavage; type: in vivo; conditions: 500 mg/kg, 1000 mg/kg and 2000 mg/kg
Procedure: (§2) • Animal species and number: SD rats; 6 rats in each group (half male and half female); Mode of administration: oral gavage; […]; • Administration frequency: administration once.
as §1, with “Side-cage observation on the day of administration (D1): frequency and time of observation: side-cage” for “Side-cage”, “after administration of animals in each group,” for “after administration,”, “manifestations.” for “manifestations. General clinical observations included observation twice a day during the test (observation once in the morning and observation once in the afternoon).”, “of the observation period,” for “of administration,”

[3] = system: breast cancer tumor cells 4T1; conditions: 10 mg/kg, i.g., QD×21 days; for Tumor inhibition rate / tumor-inhibiting efficacy: 4T1 subcutaneous tumor
Procedure: Subsequently, each group of animals was dosed, and the day of first administration was defined as test day 1; • Administration frequency: once a day; • General state observations: observation time and frequency: once a day; observation indicators or content: including, but not limited to, local administration of the animals, appearance signs, general behavioral activity, mental status, death, and other abnormal manifestations. The animals were euthanized at the end of the test. • Calculation of tumor volume: V=1/2×long diameter×short diameter^2 (mm^3).

hPD-1/hPD-L1 = target: T1, hPD-1/hPD-L1 (Homo sapiens, UniProt Q9NZQ7); experiment: PD-1/PD-L1 binding assay kit (CISBIO), HTRF assay of PD-1/PD-L1 protein-protein interaction; conditions: for inhibitory activity of PD-1/PD-L1 protein-protein interaction compared with BMS-202: HTRF, comparison with BMS-202
T1 construct: purchased CISBIO
Procedure: Experimental objective: the activity of the compounds of formula (I) to inhibit the PD-1/PD-L1 interaction was tested by using a PD-1/PD-L1 binding assay kit (CISBIO).
Experimental principle: HTRF (Homogeneous Time-Resolved Fluorescence) is a technique used to detect substances to be tested in pure liquid phase systems. It primarily utilizes energy transfer of two fluorescent groups, which are divided into an energy donor europium (Eu^+) and an energy acceptor. When the donor is externally excited (e.g., a flash lamp or laser), the energy can be resonantly transferred to the acceptor if the donor is close enough to the acceptor, and the acceptor is excited at a specific wavelength. By using the HTRF technology, the assay enables simple and rapid characterization of compounds and antibody blockers in a high-throughput format. By using anti-Tag1 labeled with Eu^+ (Europium) (the HTRF energy donor) and anti-Tag2 labeled with XL665 (the HTRF energy acceptor), the interaction between PD-L1 and PD-1 can be detected. PD-L1 protein and PD-1 protein are labeled with Tag1 and Tag2, respectively, and Eu^+ and XL665 bind to PD-L1 and PD-1, respectively, through antibodies to form complexes. […] This specific signal is directly proportional to the degree of PD1/PD-L1 interaction.
Experimental materials: kit: PD-1/PD-L1 binding assay kits purchased from CISBIO; and 96-well plate: purchased from CISBIO.
Test instrument: Perkin Elmer, model: EnVision.
Test compounds: the compounds in formula (I).
Experimental procedure: PD-1/PD-L1 binding assay kits were used. […] The plates were sealed by using microplate sealers, centrifuging was performed at 1000 rpm for 1 min, and incubation was performed at room temperature for 15 min. The Anti-Tag-Eu^3+ and Anti-tag-XL665 which were diluted with Buffer were then mixed in equal volumes, then 10 µL of the mixed solution was added to each well, the sealed plates were centrifuged at 1000 rpm for 1 min, and incubation was performed at room temperature for 2 h. […] IC50 of the compounds was calculated by using Graphpad.

[4] = Acute toxicity test, single oral gavage; type: in vivo; conditions: both sexes, rat, in vivo, po, SD rats, read-out: maximum tolerated dose (MTD)
Procedure: as §2
as §1, with “Side-cage observation on the day of administration (D1): frequency and time of observation: side-cage” for “Side-cage”, “after administration of animals in each group,” for “after administration,”, “manifestations.” for “manifestations. General clinical observations included observation twice a day during the test (observation once in the morning and observation once in the afternoon).”, “of the observation period,” for “of administration,”

T1 sequence (Q9NZQ7 19-238 limits assumed): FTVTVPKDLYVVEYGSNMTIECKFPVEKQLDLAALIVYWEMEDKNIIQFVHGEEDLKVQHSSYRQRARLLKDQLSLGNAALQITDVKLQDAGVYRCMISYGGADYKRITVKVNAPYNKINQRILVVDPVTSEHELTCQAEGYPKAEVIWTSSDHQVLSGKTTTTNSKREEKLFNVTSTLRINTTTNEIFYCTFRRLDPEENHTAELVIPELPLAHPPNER

Row | SMILES | clinical observations (water intake, food intake, activity, body weight) (SD rats [1]) | gross observation, test sample-related changes (SD rats [2]) | mortality or moribundity (SD rats [2]) | general state of tumor-bearing animals during administration (water and food intake, activity, body weight, toxicity) [3] | Tumor inhibition rate [3] | tumor-inhibiting efficacy [3] | IC50 (hPD-1/hPD-L1) [µM] | inhibitory activity of PD-1/PD-L1 protein-protein interaction compared with BMS-202 (hPD-1/hPD-L1) | MTD [4] [mg/kg]
1 | OCCN1CCc2nc(OCc3cccc(-c4ccccc4F)c3Cl)ccc2C1 [I-D-18, 2-(2-((2-chloro-2'-fluoro-[1,1'-biphenyl]-3-yl)methoxy)-7,8-dihydro-1,6-naphthyridin-6(5H)-yl)ethan-1-ol] | normal water intake and food intake, normal activity, and normal body weight, with no significant abnormalities | No test sample-related changes were observed grossly | No mortality or moribundity was observed | normal water intake and food intake, normal activity, normal body weight, and no toxicity manifestations | +++ ("+++" indicates a tumor inhibition rate of more than 60%) | significant tumor-inhibiting efficacy | 0.0163 | superior to that of the compound BMS-202 | 
2 | O=C(O)CN1CCc2nc(OCc3cccc(-c4ccccc4F)c3Cl)ccc2C1 [I-D-26, 2-(2-((2-chloro-2'-fluoro-[1,1'-biphenyl]-3-yl)methoxy)-7,8-dihydro-1,6-naphthyridin-6(5H)-yl)acetic acid] | normal water intake and food intake, normal activity, and normal body weight, with no significant abnormalities | No test sample-related changes were observed grossly | No mortality or moribundity was observed |  | +++ ("+++" indicates a tumor inhibition rate of more than 60%) | significant tumor-inhibiting efficacy |  |  | ≥ 2000
3 | Fc1ccccc1-c1cccc(COc2ccc3c(n2)CCNC3)c1Cl [I-D-27, 2-((2-chloro-2'-fluoro-[1,1'-biphenyl]-3-yl)methoxy)-5,6,7,8-tetrahydro-1,6-naphthyridine] | normal water intake and food intake, normal activity, and normal body weight, with no significant abnormalities | No test sample-related changes were observed grossly | No mortality or moribundity was observed | normal water intake and food intake, normal activity, normal body weight, and no toxicity manifestations | +++ ("+++" indicates a tumor inhibition rate of more than 60%) | significant tumor-inhibiting efficacy | 0.0101 | superior to that of the compound BMS-202 | ≥ 2000
